Read-outs that look alike come from different tables or passages of the source.
Key:
[1] = system: cerebellar granule cells; experiment: Extracellular glutamate and aspartate content in potassium induced depolarization (HPLC); type: cell-based, Sprague-Dawley rats
Description: Primary cell cultures of cerebellar granule cells were prepared from 8 day old Sprague-Dawley rats.
(§1) Neurons were grown in 35 mm plates for 11-13 days and maintained in a humid environment (95% air and 5% CO2). Cultures (3×10^6 cells/plate) are mainly formed by granule cells (95%, with a small amount (5%) of glial cells (Gallo V. et al.: Selective release of glutamate from cerebellar granule cells differentiating in culture. Proc. Natl. Acad. Sci. USA 79, 7919-23, 1982). Glial proliferation was prevented by arabinofuranoside cytosine.
Derivative ND37 was solubilized at a concentration of […] in dimethylsulfoxide (1% DMSO), and then diluted at various concentrations (0.1-1-10-20 μM) in Locke's solution (154 mM NaCl/5.6 mM KCl/3.6 mM NaHCO3 /2.3 mM CaCl2 /1 mM MgCl2 /5.6mM glucose/5 mM HEPES, pH 7.4). […]
The cell culture medium was aspirated from the plates. Plates were washed (3×2 ml) with Locke's solution, and solutions (750 μl) containing the compound to be tested (concentrations from 0.1 to 20 μM) were added and incubated for 2 hours in an incubator at 37° C. (5% CO2) both in the presence and absence of different depolarizing concentrations of KCl (between 5 and 50 mM). The incubation medium was gathered, filtered through a 0.2 μ filter, and processed (220 μl) for the analysis of the amino acid content.
The glutamate and aspartate content (expressed as μM) was evaluated by HPLC (high pressure liquid chromatography), according to Bidlingmeryer B. A. et al., J. Chromatogr. 336, 93-104, 1984.

[2] = system: neonatal rats; experiment: Cerebral damage induced by icv injection of N-methyl-D-aspartate, total brain weight; type: in vivo; details: for Total brain weight: NMDA 25 nmoles icv, 1 hour before and immediately after NMDA, day 12
Description: Experiments were performed on 7 day old neonatal rats weighing ca. 13 grams. […] The excitotoxin was solubilized in saline, and the pH was brought to 7.4 by adding 1N NaOH. The NMDA injection (25 nmoles/μl) was performed slowly (2 minutes) at the level of the right lateral ventricle utilizing a Hamilton syringe. Saline was administered to control animals (1 μl icv).
The compound was administered subcutaneously (sc) after suspension in 1% DMSO (experiment No. 1) or in 0.5% tragacanth (experiment No. 2). The compound was tested at the following doses: 1-3-5 mg/kg sc.
The treatment was conducted performing two administrations:
1 hour before NMDA injection;
immediately after NMDA injection.
The number of animals utilized in each experimental group (corresponding to the total number of animals, i.e., experiment 1+experiment 2, according to Table 3) is indicated in brackets.
Animals were sacrificed on the 12th day (i.e., 5 days after NMDA injection) for the evaluation of the in toto brain weight, defined in mg.
The statistical significance was evaluated using Dunnett's test.

[3] = system: glutamate-activated cationic channels (cerebellar granule neurons); experiment: Single channel current registration of glutamate-activated cationic channels; type: cell-based, rats
Description: Primary cell cultures of cerebellar granule cells were prepared from 8 day old rats (Zivic Miller, Pittsburgh, Pa, USA).
as §1, with “grown on” for “grown in”, “for 7-8” for “for 11-13”, “Cultures (2.5×10^6” for “Cultures (3×10^6”, “cells/plate) were” for “cells/plate) are”, “cells (95%),” for “cells (95%,”
Derivative ND37 was solubilized at a concentration of 1×10^-2 M in dimethylsulfoxide (1% DMSO), and then diluted at various concentrations in Locke's solution (-Mg^++) (154 mM NaCl/5.6 mM KCl/3.6 mM NaHCO3 /2.3 mM CaCl2 /5.6 mM glucose/5 mM HEPES, pH 7.4). ND37 was analyzed at concentrations of 20 and 30 μM.
Experiments were performed at room temperature utilizing the following medium 145 mM NaCl, 1 mM CaCl2, 5 mM glucose, and 5 mM HEPES/NaOH at pH 7.4, and patch pipettes, close to the preparation, containing 145 mM CsCl2, 1 mM CaCl2, 11 mM ethyleneglycol (β-aminoethyl ether) bis N,N'-tetraacetic acid, 10 mM HEPES/Cs(OH)2 at pH 7.2. Plates were continually perfused at a flow rate of 1 ml/min.
b) The activation by glutamate of single channels was externally recorded on membrane portions prepared from cerebellar granule cells pretreated with ND37 for 30 minutes at 37° C. Micropipettes, filled (1 μM) with glutamate, were positioned close to the membrane portions and were also utilized in order to drip the neurotransmitter. Single channel currents were registered according to the method described by Bertolini and Vicini ("Voltage-dependent block by strychnine of N-methyl-D-aspartic acid-activated cationic channels in rat cortical neurons in culture", Mol. Pharmacol. 34, 98-103, 1988).

[4] = system: cerebellar granule cells; experiment: Protective effect on exogenous glutamate induced neurotoxicity, pretreatment, MTT test; type: cell-based, Sprague-Dawley rats; details: glutamate 100 μM, 2 hours pretreatment
Description: Primary cell cultures of cerebellar granule Cells were prepared from 6 day old Sprague-Dawley rats. Neurons were grown in 35 mm plates for 11-13 days and maintained in a humid environment (95% air and 5% CO2). Cultures (3×10^6 cells/plate) are mainly formed by granule cells (95%) with a small amount (5%) of glial cells (Gallo V. et al.: Selective release of glutamate from cerebellar granule cells differentiating in culture. Proc. Natl. Acad. Sci. USA 79, 7919-23, 1982). Glial proliferation was prevented by arabinofuranoside cytosine.
Derivative ND37 was solubilized at a concentration of 1×10^-2 M in dimethylsulfoxide (1% DMSO) and then diluted at various concentrations in Locke's solution (154 mM NaCl/1/5.6 mM KCl/3.6 mM NaHCO3 /2.3 mM CaCl2 /1 mM MgCl2 /5.6 mM glucose/5 mM HEPES, pH 7.4). The following concentrations were tested: 5×10^-6 M, 1×10^-5 M, and 2×10^-5 M.
The cell culture medium was aspirated from the plates (and correctly maintained). Plates were washed (3×2 ml) with Locke's solution, and solutions (1.5 ml) containing the compound to be tested (concentrations from 5×10^-6 M to 2×10^-5 M) were added and incubated for 2 hours in an incubator at 37° C. (5% CO2).
Treated cells were washed (3×2 ml) with Locke's solution+10% fetal calf serum, then washed (3×2 ml) with Locke's solution without Mg^++. 100 μM glutamate (1.5 ml) in Locke's solution (-Mg^++) or culture medium (controls) were added. Incubation with glutamate was performed for 15 minutes at room temperature (27° C.). Glutamate was removed, the plates were washed with Locke's solution (2×2 ml), and then incubated in presence of the starting medium (correctly maintained) for 24 hours at 37° C. in an incubator (5% C2 O). At the end of the incubation, cellular viability was assayed via quantification by the MTT colorimetric test (Mosmann T.: Rapid colorimetric assay for cellular growth and survival: application to proliferation and cytotoxicity assays. J. Immunol. Meth. 65, 55: 63, 1983 and modified according to Skaper S. D. et al.: Death of cultured hippocampal pyramidal neurons induced by pathological activation of N-methyl-D-aspartate receptors is reduced by monosialogangliosides. J. Pharm. Exp. Ter. 259,1 452-457, 1991). Data are expressed as % survival. The significance was calculated according to the Dunnett test.

[5] = controls + ND 37 (20 uM), no KCl
[6] = group 3: KCl (50 mM) + ND37 (20 uM) as printed, corresponding group KCl (30 mM)
[7] = group 4: KCl (50 mM) + ND37 (20 uM), Table 5
[8] = group 5: KCl (50 mM) + ND37 (20 uM) as printed, corresponding group KCl (25 mM)
[9] = group 6: KCl (50 mM) + ND37 (20 uM) as printed, corresponding group KCl (15 mM)
[10] = Glutamate (1 mM) + ND37 (20 uM), 30 minutes pretreatment, n = 10

CCCCCCCCCCCCCCCC(=O)NC1C(O)CC(OCC)(C(=O)N(C)C)OC1C(O)C(O)CO (stereo not drawn) [ND37, β-2-O-ethylglycoside of the dimethylamide of N-palmitoylneuraminic acid]
glutamate increase induced by KCl in the culture medium ([1]; 20 μM): completely abolished
extracellular increase of glutamate and aspartate induced by KCl ([1]; 20 μM, KCl 15, 25, 30, and 50 mM): completely abolished
Extracellular glutamate content ([1]; KCl (50 mM) + ND37 (0.1 uM)): 12.60 ± 0.57 µM
Extracellular glutamate content ([1]; KCl (50 mM) + ND37 (1 uM)): 13.30 ± 1.33 µM
Extracellular glutamate content ([1]; KCl (50 mM) + ND37 (10 uM)): 5.60 ± 2.37 µM
Extracellular glutamate content ([1]; KCl (50 mM) + ND37 (20 uM), Table 4): 0.11 ± 0.09 µM
activity at 0.1 µM ([1]; Rattus norvegicus, 2 h, KCl (50 mM) + ND37 (0.1 uM)): 72%
activity at 1 µM ([1]; Rattus norvegicus, 2 h, KCl (50 mM) + ND37 (1 uM)): 76%
activity at 10 µM ([1]; Rattus norvegicus, 2 h, KCl (50 mM) + ND37 (10 uM)): 32%
activity at 20 µM ([1]; Rattus norvegicus, 2 h, KCl (50 mM) + ND37 (20 uM), Table 4, read-out: % KCl 50 Mm (extracellular glutamate)): 0.01%
activity at 20 µM ([1]; Rattus norvegicus, 2 h, group 3: KCl (50 mM) + ND37 (20 uM) as printed, corresponding group KCl (30 mM), read-out: % corresp. KCl (aspartate)): 0.06%
activity at 20 µM ([1]; Rattus norvegicus, 2 h, group 3: KCl (50 mM) + ND37 (20 uM) as printed, corresponding group KCl (30 mM), read-out: % corresp. KCl (glutamate)): 0.01%
activity at 20 µM ([1]; Rattus norvegicus, 2 h, group 4: KCl (50 mM) + ND37 (20 uM), Table 5, read-out: % corresp. KCl (aspartate)): 0.13%
activity at 20 µM ([1]; Rattus norvegicus, 2 h, group 4: KCl (50 mM) + ND37 (20 uM), Table 5, read-out: % corresp. KCl (glutamate)): 0.02%
activity at 20 µM ([1]; Rattus norvegicus, 2 h, group 5: KCl (50 mM) + ND37 (20 uM) as printed, corresponding group KCl (25 mM), read-out: % corresp. KCl (aspartate)): 0.28%
activity at 20 µM ([1]; Rattus norvegicus, 2 h, group 5: KCl (50 mM) + ND37 (20 uM) as printed, corresponding group KCl (25 mM), read-out: % corresp. KCl (glutamate)): 0.06%
activity at 20 µM ([1]; Rattus norvegicus, 2 h, group 6: KCl (50 mM) + ND37 (20 uM) as printed, corresponding group KCl (15 mM), read-out: % corresp. KCl (aspartate)): 0.09%
activity at 20 µM ([1]; Rattus norvegicus, 2 h, group 6: KCl (50 mM) + ND37 (20 uM) as printed, corresponding group KCl (15 mM), read-out: % corresp. KCl (glutamate)): 0.34%
inhibition at 0.1 µM ([1]; Rattus norvegicus, 2 h, 0.1 μM, read-out: reduction of extracellular glutamate induced by KCl): ~30%
Extracell. aspartate content [1, 5]: 0.039 µM
Extracell. glutamate content [1, 5]: 0.362 µM
basal levels (controls) of extracellular glutamate and aspartate ([1]; doses up to 20 μM): did not modify
Extracell. aspartate content [1, 6]: 0.063 µM
Extracell. glutamate content [1, 6]: 0.318 µM
Extracell. aspartate content [1, 7]: 0.078 µM
Extracell. glutamate content [1, 7]: 0.246 µM
Extracell. aspartate content [1, 8]: 0.107 µM
Extracell. glutamate content [1, 8]: 0.330 µM
Extracell. aspartate content [1, 9]: 0.046 µM
Extracell. glutamate content [1, 9]: 0.899 µM
efficacy against NMDA brain damage ([2]; 1 mg/kg sc, p<0.01): significatively effective
reduction of brain damage induced by the excitotoxin (lowering of total brain weight) ([2]; 1-3-5 mg/kg sc): effective in reducing the brain damage
Total brain weight ([2]; Experiment n.1 (vehicle = DMSO 1%), 1 mg/kg sc): 960 mg
Total brain weight ([2]; Experiment n.1 (vehicle = DMSO 1%), 3 mg/kg sc): 968 mg
Total brain weight ([2]; Experiment n.1 (vehicle = DMSO 1%), 5 mg/kg sc): 959 mg
Total brain weight ([2]; Experiment n.2 (0.5% tragacanth), 1 mg/kg sc): 1019 mg
Total brain weight ([2]; Experiment n.2 (0.5% tragacanth), 3 mg/kg sc): 977 mg
Total brain weight ([2]; Experiment n.2 (0.5% tragacanth), 5 mg/kg sc): 976 mg
Channel conductivity [3, 10]: 50 ps
Opening frequence [3, 10]: 4.1 ± 2.1 opening/sec
effect on channel conductivity and frequency of opening ([3]; pretreatment 30 minutes with 20 μM ND37): does not influence
viability at 10 µM ([4]; Rattus norvegicus, ND37 1 × 10^-5 M, read-out: % survival): ~63%
viability at 20 µM ([4]; Rattus norvegicus, ND37 2 × 10^-5 M, read-out: % survival): ~83%
viability at 5 µM ([4]; Rattus norvegicus, ND37 5 × 10^-6 M, read-out: % survival): 37 ± 5%
MTT values ([4]; ND37 1 × 10^-5 M): 0.123 ± 0.006
MTT values ([4]; ND37 2 × 10^-5 M): 0.326 ± 0.016
MTT values ([4]; ND37 5 × 10^-6 M): 0.110 ± 0.015

Reference: patent US5677285A, “Derivatives of neuraminic acid” (Fidia S.P.A., priority 1992, dated 1997)
